Assay results as given in PMC5423902, “CXCL9-Derived Peptides Differentially Inhibit Neutrophil Migration In Vivo through Interference with Glycosaminoglycan Interactions” (Frontiers in Immunology, 2017).
Each block holds one substance with its values, some of them ahead of it.

Columns and labels:
[1] = Isothermal fluorescence titration (IFT), LMWH; format: binding; details: for affinity for LMWH: IFT, both COOH-terminal peptides compared
Protocol: (§1) To study the interaction between CXCL9(74-93) and GAGs, titration experiments were performed as described by Gerlza et al. ([46]) using TAMRA-labeled synthetic CXCL9(74-93), TAMRA-labeled synthetic CXCL9(74-103), HS (Iduron BN1, Manchester, UK), low molecular weight heparin (LMWH; Iduron BN5), and chondroitin sulfate (CS; Carbosynth, Compton, UK).

[2] = Isothermal fluorescence titration (IFT), HS; format: binding; details: for affinity for HS: IFT, both COOH-terminal peptides compared
Protocol: as §1

[3] = test system: CXCL8(1-77) binding to heparin; assay: Competition with CXCL8 for binding to immobilized heparin (ELISA-like); parameters: species or system human; details: heparin-coated plates, CXCL8(1-77) 0-300 nM, 2 h at 37°C; anti-CXCL8 detection, 450 nm; n ≥ 4; Figure 3A
Protocol: (§2) The ability of the COOH-terminal peptides of CXCL9 and CXCL4 to compete for GAG binding with the inflammatory chemokines CXCL8 and CXCL1 was evaluated on heparin-binding plates [BD Biosciences or produced by Jason Whittle (School of Engineering/Future Industries Institute, University of South Australia, Australia)] ([42], [47]). In brief, GAGs (heparin, HS, and CS; Iduron; 25 µg/ml) were coated overnight at room temperature. Dilutions of COOH-terminal CXCL9 or CXCL4 peptide combined with recombinant human CXCL8(1-77) or recombinant murine CXCL1(1-72) (Peprotech, Rocky Hill, NJ, USA) were added in duplicate and incubated for 2 h at 37°C. Subsequently, bound CXCL8 or CXCL1 was detected with biotinylated polyclonal rabbit anti-human CXCL8 or biotinylated polyclonal goat anti-mouse CXCL1 (Peprotech) and horse radish peroxidase-labeled streptavidin. Finally, the peroxidase activity was quantified at 450 nm.
(§3) Figure 3 CXCL9(74-93) competes with CXCL8 for binding to heparin, heparan sulfate (HS), and cellular glycosaminoglycans (GAGs). Competition between CXCL8 and COOH-terminal CXCL9 or CXCL4 peptides for binding to immobilized heparin (A) or HS (B) and to Chinese hamster ovary (CHO) cells (C) was performed. […] Bound CXCL8 was detected with biotinylated anti-human CXCL8 antibodies. (C) Binding of NH2-terminally biotinylated CXCL8(1-77) (300 nM) to CHO cells in the presence or absence of an excess CXCL9 peptide was detected by streptavidin-allophycocyanin and flow cytometry. The mean (± SEM) percentage inhibition of binding of CXCL8(1-77) to heparin, HS or cellular GAGs is indicated on the y-axis (n ≥ 4). Statistical comparison of the different competitors with CXCL9(74–103) was performed using the Mann–Whitney U-test (*p < 0.05).

[4] = test system: CXCL8(1-77) binding to heparan sulfate (HS); assay: Competition with CXCL8 for binding to immobilized HS (ELISA-like); parameters: species or system human; details: CXCL8(1-77) 0-300 nM, n ≥ 4, Figure 3B
Protocol: as §2, §3

[5] = test system: CXCL8(1-77) binding to cellular GAGs on CHO cells; assay: Competition with biotinylated CXCL8 for binding to CHO cells, flow cytometry; format: cell-based, Chinese hamster; details: mean, n ≥ 4, Figure 3C (300 nM CXCL8)
Protocol: Binding of biotinylated CXCL9(74-103) and CXCL9(74-93) to CHO cells was assessed by flow cytometry as recently described ([42]). Briefly, cells were detached with phosphate-buffered saline (PBS) with 0.02% ethylenediaminetetraacetic acid (EDTA) and incubated with NH2-terminally biotinylated peptides. Subsequently, cells were incubated with streptavidin-allophycocyanin (BD Biosciences, San Jose, CA, USA) and analyzed by flow cytometry (FACSCalibur, BD Biosciences). To confirm inhibition of sulfation of cellular GAGs, part of the cells were stained with a mouse monoclonal anti-human HS antibody (Immunosource, Schilde, Belgium) and a secondary phycoerythrin-labeled goat anti-mouse antibody (BD Biosciences). Finally, cells were analyzed by flow cytometry. Analogously, binding of 100 nM biotinylated CXCL8 in the presence or absence of CXCL9(74-103) or CXCL9(74-93) was compared on CHO cells.
as §3

[6] = test system: CXCL8-induced neutrophil migration; assay: CXCL8-induced neutrophil migration to the peritoneal cavity; format: in vivo, mouse (NMRI); details: for neutrophils in the peritoneal cavity upon CXCL8: significant; for neutrophils in the peritoneal cavity upon CXCL8 / percentage of neutrophils in the peritoneal cavity upon CXCL8: n ≥ 5
Protocol: In vivo neutrophil extravasation to the peritoneal or the knee cavity was examined, respectively, by intraperitoneal or intra-articular injection, of endotoxin-free recombinant CXCL8(1-77) (PeproTech) or vehicle (PBS) in female NMRI or C57BL/6 mice, as described previously ([42], [48]). Simultaneously, synthetic CXCL9 peptide was co-injected either intraperitoneally or injected intravenously. After 2 h (peritoneal cavity) or 3 h (knee cavity), mice were sacrificed. The peritoneal cavity was washed with saline enriched with 2% FCS and 20 U/ml heparin and total leukocyte counts were determined. For the preparation of cytospins, 10^5 cells were used and absolute number and percentage of neutrophils in the lavages were determined in duplicate independently by two researchers by differential microscopic counting. The cells present in the tibiofemoral articulation were harvested by washing the cavity with 10 µl of 3% (w/v) bovine serum albumin in PBS and diluted in 90 µl of 3% (w/v) bovine serum albumin in PBS. The number of total leukocytes was determined by counting leukocytes in a Neubauer chamber after staining with Turk’s solution. Differential counts were obtained from cytospin preparations by evaluating the percentage of each leukocyte type on a slide stained with May-Grunwald-Giemsa solution.
Figure 4 The COOH-terminal peptides of CXCL9 inhibit CXCL8-induced neutrophil migration to the peritoneal cavity. CXCL8(1-77) was injected into the peritoneal cavity of NMRI mice (n ≥ 5) simultaneously with an intraperitoneal (A) or intravenous (B,C) injection of CXCL9(74-103) or CXCL9(74–93). The number of neutrophils in the peritoneal cavity, 2 h post injection, were evaluated by differentially counting the leukocyte subtypes on Hemacolor-stained cytospins. The neutrophil counts are shown for every individual mouse, and the horizontal lines denote the median percentage. To detect statistically significant differences, the Mann–Whitney U-test was carried out (*p < 0.05; **p < 0.01; ***p < 0.005).

[7] = test system: CXCL1(1-72) binding to heparan sulfate (HS); assay: Competition with CXCL1 for binding to immobilized HS; parameters: species or system murine; details: n ≥ 3, Figure 6A; for reduction of CXCL1 binding to HS: mean; for maximum inhibition of CXCL1 binding to HS: maximum achieved
Protocol: as §2
Competition between CXCL1 and COOH-terminal CXCL9 peptides for binding to immobilized heparan sulfate (HS) (A) and chondroitin sulfate (CS) (B) was performed. […] Bound CXCL1 was detected with biotinylated polyclonal goat anti-mouse CXCL1 antibodies. The mean (± SEM) percentage inhibition of CXCL1 binding to GAGs is indicated on the y-axis (n ≥ 3). Statistical comparison of the different competitors with CXCL9(74–103) was performed using the Mann–Whitney U-test.

- Kd ([1]; isothermal fluorescence titration, TAMRA-labeled peptide, read-out: affinity (KD value) for LMWH): 63 ± 13 nM
- Kd ([2]; isothermal fluorescence titration, TAMRA-labeled peptide, biphasic binding isotherm, fit of only the initial high-affinity phase): 1 nM
- molar excess over CXCL8 giving 50% reduction of CXCL8 binding to heparin [3]: 10 fold molar excess
- reduction of CXCL1 binding to HS ([7]; 10-fold molar excess): 39%
- maximum inhibition of CXCL1 binding to HS [7]: 52%
Substance: 74KKKQKNGKKHQKKKVLKVRK93 [CXCL9(74-93), COOH-terminal peptide of CXCL9 lacking the 10 COOH-terminal amino acids of CXCL9(74-103)]
- affinity for LMWH [1]: high and comparable affinity
- affinity for HS [2]: high and comparable affinity
- inhibition of CXCL8 binding on HS-coated plates [4]: equally efficient in inhibiting CXCL8 binding
- inhibition of binding of biotinylated CXCL8 to cellular GAGs ([5]; 30-fold excess of peptide): 31%
- inhibition of binding of biotinylated CXCL8 to cellular GAGs ([5]; 100-fold excess of peptide): 50%
- neutrophils in the peritoneal cavity upon CXCL8 ([6]; 66 µg peptide i.v. (equal molar amount to 108 µg CXCL9(74-103)), CXCL8 i.p., control 192 × 10^4, Figure 4C): 65 × 10^4 neutrophils
- percentage of neutrophils in the peritoneal cavity upon CXCL8 ([6]; 66 µg peptide i.v., CXCL8 i.p., control 19%, Figure 4C): 8.25%
- potency against CXCL8 relative to CXCL9(74-103) ([6]; i.v., peritoneal model, Figure 4C): equally potent inhibitor of CXCL8 than CXCL9(74-103)
- competition for CXCL1 binding to HS [7]: less potent competitor than CXCL9(74-103)

Substance: 74KKKQKNGKKHQKKKVLKVRKSQRSRQKKTT103 [CXCL9(74-103), COOH-terminal peptide of CXCL9]
- affinity for LMWH [1]: high and comparable affinity
- affinity for HS [2]: high and comparable affinity
- molar excess over CXCL8 giving 50% reduction of CXCL8 binding to heparin [3]: 10 fold molar excess
- inhibition of CXCL8 binding on HS-coated plates [4]: equally efficient in inhibiting CXCL8 binding
- inhibition of binding of biotinylated CXCL8 to cellular GAGs ([5]; 30-fold excess of peptide): 53%
- reduction of CXCL8-induced neutrophil recruitment to peritoneal cavity ([6]; 12 µg peptide i.p., Figure 4A): failed to reduce CXCL8-induced neutrophil recruitment
- reduction of CXCL8-induced neutrophil recruitment to peritoneal cavity ([6]; 36 µg peptide i.p., Figure 4A): failed to reduce CXCL8-induced neutrophil recruitment
- neutrophil influx to peritoneal cavity upon CXCL8 ([6]; 36 µg peptide i.v., not significant, Figure 4B): a trend toward a lower neutrophil influx
- neutrophils in the peritoneal cavity upon CXCL8 ([6]; 108 µg peptide i.p. co-injected with 1 µg CXCL8 i.p., NMRI, 2 h, CXCL8 alone about 142 × 10^4, Figure 4A): 45 × 10^4 neutrophils
- percentage of neutrophils in the peritoneal cavity upon CXCL8 ([6]; 108 µg peptide i.p. co-injected with 1 µg CXCL8 i.p., NMRI, 2 h, Figure 4A): 6.6%
- reduction of CXCL8-induced neutrophil migration to peritoneal cavity ([6]; lower doses i.v., Figure 4B): not able to reduce the neutrophil migration significantly
- percentage of neutrophils in the peritoneal cavity upon CXCL8 ([6]; peptide i.v. (highest dose tested, dose not given), CXCL8 i.p., control 16.5%, Figure 4B): 10.1%
- neutrophils in the peritoneal cavity upon CXCL8 ([6]; peptide i.v. (highest dose tested, dose not given), CXCL8 i.p., control 148 × 10^4, Figure 4B): 81 × 10^4 neutrophils
- maximum inhibition of CXCL1 binding to HS [7]: 72%
- reduction of CXCL1 binding to HS ([7]; threefold molar excess compared to CXCL1): 43%
